Assay results taken from patent US20090076009A1, “THIAZOLE DERIVATIVES AND THEIR USE AS ANTI-TUMOUR AGENTS” (priority 2006, published 2009).

Experiments:
[1] = biological target: T1, p110α Type Ia human PI3K (Homo sapiens, UniProt P42336); assay: In Vitro PI3K Enzyme Assay (AlphaScreen); assay type: biochemical; settings: Test (a); read-out: IC50 versus p110α Type Ia human PI3K
T1 construct: full length DNA of each of the p110α, p110β and p110δ Type Ia human PI3K p110 isoforms; 6-His; made in house; Grp1 PH domain in E. coli
T1 sequence (P27986 whole entry, the tested form may be a part, canonical isoform): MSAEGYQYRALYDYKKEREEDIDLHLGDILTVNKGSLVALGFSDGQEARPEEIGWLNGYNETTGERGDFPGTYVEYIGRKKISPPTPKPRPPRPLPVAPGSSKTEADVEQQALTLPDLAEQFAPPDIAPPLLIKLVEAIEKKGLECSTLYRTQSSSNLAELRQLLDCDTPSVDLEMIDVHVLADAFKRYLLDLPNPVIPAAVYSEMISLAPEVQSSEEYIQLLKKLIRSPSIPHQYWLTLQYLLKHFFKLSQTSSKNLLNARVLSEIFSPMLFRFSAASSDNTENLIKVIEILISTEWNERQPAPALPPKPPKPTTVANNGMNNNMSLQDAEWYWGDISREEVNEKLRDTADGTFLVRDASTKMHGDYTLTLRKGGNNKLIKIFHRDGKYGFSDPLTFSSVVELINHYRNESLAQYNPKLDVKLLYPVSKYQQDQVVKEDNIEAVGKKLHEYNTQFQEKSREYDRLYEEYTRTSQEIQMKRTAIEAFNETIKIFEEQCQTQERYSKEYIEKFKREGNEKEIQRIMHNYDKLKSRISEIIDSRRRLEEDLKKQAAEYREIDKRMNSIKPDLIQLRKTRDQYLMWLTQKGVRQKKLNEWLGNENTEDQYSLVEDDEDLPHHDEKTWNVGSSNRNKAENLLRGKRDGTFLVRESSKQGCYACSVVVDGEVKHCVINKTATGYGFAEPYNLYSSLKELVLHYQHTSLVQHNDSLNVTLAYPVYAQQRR
T1 sequence (P42336 whole entry, the tested form may be a part, canonical isoform): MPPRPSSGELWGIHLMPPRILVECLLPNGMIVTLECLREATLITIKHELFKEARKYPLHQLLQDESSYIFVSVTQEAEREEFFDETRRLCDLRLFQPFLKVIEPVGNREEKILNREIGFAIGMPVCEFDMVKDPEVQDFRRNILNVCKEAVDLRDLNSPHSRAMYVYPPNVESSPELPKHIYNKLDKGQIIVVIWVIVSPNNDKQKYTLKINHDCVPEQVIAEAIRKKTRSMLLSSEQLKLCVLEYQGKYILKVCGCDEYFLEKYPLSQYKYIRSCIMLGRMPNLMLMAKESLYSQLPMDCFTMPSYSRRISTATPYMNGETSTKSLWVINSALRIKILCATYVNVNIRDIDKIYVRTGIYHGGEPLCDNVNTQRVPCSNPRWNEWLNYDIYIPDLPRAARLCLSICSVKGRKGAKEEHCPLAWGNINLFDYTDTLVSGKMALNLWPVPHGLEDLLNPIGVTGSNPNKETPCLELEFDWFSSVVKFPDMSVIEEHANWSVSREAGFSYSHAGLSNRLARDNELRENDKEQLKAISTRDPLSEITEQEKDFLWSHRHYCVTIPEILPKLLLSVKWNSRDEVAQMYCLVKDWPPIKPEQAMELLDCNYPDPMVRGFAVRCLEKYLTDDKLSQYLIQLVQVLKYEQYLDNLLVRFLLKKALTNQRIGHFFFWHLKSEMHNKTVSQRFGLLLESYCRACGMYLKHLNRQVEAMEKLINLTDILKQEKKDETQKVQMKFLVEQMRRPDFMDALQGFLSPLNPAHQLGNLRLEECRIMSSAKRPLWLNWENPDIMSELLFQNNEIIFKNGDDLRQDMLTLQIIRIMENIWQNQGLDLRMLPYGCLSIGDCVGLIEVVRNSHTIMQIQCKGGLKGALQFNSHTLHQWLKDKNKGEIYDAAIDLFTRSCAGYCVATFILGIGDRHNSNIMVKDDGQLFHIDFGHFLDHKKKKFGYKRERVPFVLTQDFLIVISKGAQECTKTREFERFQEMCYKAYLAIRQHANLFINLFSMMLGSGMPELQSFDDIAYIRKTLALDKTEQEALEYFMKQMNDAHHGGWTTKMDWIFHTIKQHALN
From the text: (a) In Vitro PI3K Enzyme Assay
The assay used AlphaScreen technology (Gray et al., Analytical Biochemistry, 2003, 313: 234-245) to determine the ability of test compounds to inhibit phosphorylation by recombinant Type I PI3K enzymes of the lipid PI(4,5)P2.
DNA fragments encoding human PI3K catalytic and regulatory subunits were isolated from cDNA libraries using standard molecular biology and PCR cloning techniques. The selected DNA fragments were used to generate baculovirus expression vectors. In particular, full length DNA of each of the p110α, p110β and p110δ Type Ia human PI3K p110 isoforms (EMBL Accession Nos. HSU79143, S67334, Y10055 for p110α, p110β and p110δ respectively) were sub-cloned into a pDEST10 vector (Invitrogen Limited, Fountain Drive, Paisley, UK). The vector is a Gateway-adapted version of Fastbac1 containing a 6-His epitope tag. […]
Each reaction was stopped by the addition of 10 μl of a mixture of EDTA (100 mM), bovine serum albumin (BSA, 0.045%) and Tris-HCl pH7.6 buffer (40 mM). […] The resultant signals arising from laser light excitation at 680 nm were read using a Packard AlphaQuest instrument. […]

[2] = biological target: mTOR PI kinase-related kinase (Homo sapiens, UniProt P42345); assay: In Vitro mTOR PI kinase-related Kinase Assay (AlphaScreen); assay type: biochemical; settings: Test (b); read-out: IC50 versus mTOR PI kinase-related kinase
Chain of mTOR PI kinase-related kinase (P42345 1362-2549): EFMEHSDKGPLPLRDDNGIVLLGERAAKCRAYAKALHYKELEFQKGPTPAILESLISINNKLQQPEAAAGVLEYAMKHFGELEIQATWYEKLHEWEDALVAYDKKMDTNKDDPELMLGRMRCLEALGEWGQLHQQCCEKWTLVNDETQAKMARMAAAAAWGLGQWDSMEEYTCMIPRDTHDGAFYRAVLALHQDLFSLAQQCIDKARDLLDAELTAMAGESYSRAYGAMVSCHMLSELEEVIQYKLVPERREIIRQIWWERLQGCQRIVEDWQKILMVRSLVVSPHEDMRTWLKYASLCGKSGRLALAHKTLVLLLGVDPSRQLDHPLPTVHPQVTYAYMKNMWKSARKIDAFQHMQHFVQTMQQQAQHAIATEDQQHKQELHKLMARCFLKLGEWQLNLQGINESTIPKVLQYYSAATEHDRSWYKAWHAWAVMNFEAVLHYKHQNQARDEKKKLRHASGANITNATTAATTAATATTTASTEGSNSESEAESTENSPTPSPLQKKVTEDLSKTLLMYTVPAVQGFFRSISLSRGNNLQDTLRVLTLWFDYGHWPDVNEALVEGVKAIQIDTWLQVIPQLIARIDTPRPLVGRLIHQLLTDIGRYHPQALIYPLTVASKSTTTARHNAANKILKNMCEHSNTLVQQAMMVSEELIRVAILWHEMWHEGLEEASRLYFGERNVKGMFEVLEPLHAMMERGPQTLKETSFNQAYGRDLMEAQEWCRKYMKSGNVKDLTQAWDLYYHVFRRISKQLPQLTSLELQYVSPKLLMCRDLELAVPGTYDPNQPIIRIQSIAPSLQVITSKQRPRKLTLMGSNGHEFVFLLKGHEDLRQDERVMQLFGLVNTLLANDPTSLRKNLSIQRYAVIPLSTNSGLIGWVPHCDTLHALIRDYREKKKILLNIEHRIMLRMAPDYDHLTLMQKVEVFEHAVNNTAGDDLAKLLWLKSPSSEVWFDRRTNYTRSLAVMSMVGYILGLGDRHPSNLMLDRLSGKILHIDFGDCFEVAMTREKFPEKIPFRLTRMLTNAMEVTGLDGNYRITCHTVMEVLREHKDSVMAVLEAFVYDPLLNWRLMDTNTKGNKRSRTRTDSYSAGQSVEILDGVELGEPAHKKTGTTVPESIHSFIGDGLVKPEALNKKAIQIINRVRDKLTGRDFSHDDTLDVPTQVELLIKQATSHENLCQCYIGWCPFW
Description: (b) In Vitro mTOR PI kinase-related Kinase Assay The assay used AlphaScreen technology (Gray et al., Analytical Biochemistry, 2003, 313: 234-245) to determine the ability of test compounds to inhibit phosphorylation by recombinant mTOR. […]
Each reaction was stopped by the addition of 10 μl of a mixture of EDTA (50 mM), bovine serum albumin (BSA; 0.5 mg/ml) and Tris-HCl pH7.4 buffer (50 mM) containing p70 S6 Kinase (T389) IA5 Monoclonal Antibody (Cell Signalling Technology, Catalogue No. 9206B) and AlphaScreen Streptavidin donor and Protein A acceptor beads (200 ng; Perkin Elmer, Catalogue No. 6760002B and 6760137R respectively) were added and the assay plates were left for about 20 hours at room temperature in the dark. The resultant signals arising from laser light excitation at 680 nm were read using a Packard Envision instrument.
Phosphorylated biotinylated peptide is formed in situ as a result of mTOR mediated phosphorylation. […] Upon laser light excitation at 680 nm, the donor bead: acceptor bead complex produces a signal that can be measured. […] In the presence of an mTOR kinase inhibitor, signal strength is reduced. mTOR enzyme inhibition for a given test compound was expressed as an IC50 value.

[3] = system: phosphorylation of Serine 473 in Akt in MDA-MB-468 human breast adenocarcinoma cell line; assay: In Vitro Phospho-Ser473 Akt Assay; assay type: cell-based; settings: Test (c), MDA-MB-468 cells, read-out: IC50, inhibition of phosphorylation of Serine 473 in Akt
Description: (c) In Vitro Phospho-Ser473 Akt Assay
This assay determines the ability of test compounds to inhibit phosphorylation of Serine 473 in Akt as assessed using Acumen Explorer technology (TTP LabTech Limited, Royston, Herts, SG8 6EE, UK), a plate reader that can be used to rapidly quantitate features of images generated by laser-scanning.
A MDA-MB-468 human breast adenocarcinoma cell line (LGC Promochem, Teddington, Middlesex, UK, Catalogue No. HTB-132) was routinely maintained at 37° C. with 5% CO2 up to a confluency of 70-90% in DMEM containing 10% FCS and 1% L-glutamine.
For the assay, the cells were detached from the culture flask using ‘Accutase’ (Innovative Cell Technologies Inc., San Diego, Calif., USA; Catalogue No. AT104) using standard tissue culture methods and resuspended in media to give 5.5×10^4 cells per ml. Aliquots (90 μl) were seeded into each of the inner 60 wells of a black ‘Costar’ 96-well plate (Corning Inc., NY, USA; Catalogue No. 3904) to give a density of 5000 cells per well. Aliquots (90 μl) of culture media were placed in the outer wells to prevent edge effects. [An alternative cell handling procedure involved the maintenance of the cells in a ‘SelecT’ robotic device (The Automation Partnership, Royston, Herts SG8 5WY, UK). Cells were resuspended in media to give 5×10^4 cells per ml. Aliquots (100 μl) were seeded into the wells of a black ‘Costar’ 96-well plate.] […]

IC50 [1]: ~5 µM
IC50 [2]: ~0.5 µM
IC50 [3]: ~10 µM
SMILES: CC(=O)Nc1ncc(-c2cc(NS(=O)(=O)c3ccccc3)cnc2C)s1 [Example 1, N-[5-(5-benzenesulphonamido-2-methylpyridin-3-yl)thiazol-2-yl]acetamide]
